One assay deals with Factor XIa (Homo sapiens, UniProt P03951). Description: Factor XIa inhibition assay utilizing a fluorophore-quencher pair peptide substrate (FLINT). To be noted: for IC50: read-out: FXIa IC50; for Ki: read-out: FXIa Ki. Format: biochemical. The source says: Biological Example 1: Factor XIa Inhibition Assay Utilizing a Fluorophore-Quencher Pair Peptide Substrate
A fluorescence intensity (FLINT) based assay was used to monitor inhibition of Factor XIa. The peptide substrate, 5Fam-KLTRAETV-K5Tamra (purchased from New England Peptide) was chosen based on the FXI sequence. Conversion of zymogen FXI to its activated form, FXIa, occurs by proteolytic cleavage by […] at two sites, Arg146 and Arg180. The custom peptide used in this assay was based on the Arg146 cleavage site of FXI. The peptide substrate was designed with a fluorophore-quencher pair, where the fluorescence is quenched until FXIa cleaves the 8-mer peptide after the Arg residue.
The Factor XIa FLINT assay was used with the following 5Fam-KLTRAETV-K5Tamra assay buffer: 50 mM Tris, pH 7.5, 100 mM NaCl, 5 mM CaCl2), 0.1 mg/mL BSA, 0.03% CHAPS. Assay buffer was prepared by mixing all ingredients fresh. 5Fam-KLTRAETV-K5Tamra peptide substrate was first prepared at 10 mM in 100% DMSO, then diluted to 3 mM in 100% DMSO. Assay buffer was then added directly to the 3 mM stock of substrate to prepare the 30 μM 2× working concentration (15 μM final concentration). The 2× Factor XIa stock solution was prepared by diluting 6.562 μM stock in 1× assay buffer for a […].
Test compound(s) were run in an 11-point, 3-fold serial dilution with a final top compound concentration of 100 nM. Final DMSO in assay was 2%. FXIa was preincubated with compound for 30-minutes and then substrate was added to initiate the reaction. The assay was run with kinetic (KIN) reads at 5 min intervals over 30 minutes. The time course was linear using […] FXIa greater than 30 minutes. More specifically, the assay was run as follows: • 100 nL of 0.01 mM test compound was dispensed into black 384-well non-binding Greiner BioOne 784900 plate for 0.1 μM final concentration; • 5 μL of 1× assay buffer was dispensed to column 24 (low control) and 5 μL 2× Factor XIa solution was dispensed to columns 1-23 (column 23 high control); • the plate was centrifuged with a “cover” plate at 500 rpm for 1 min • the plate was pre-incubated for 30 minutes at room temperature with plate covered; • 5 μL of 2×5Fam-KLTRAETV-K5Tamra peptide substrate was dispensed into the entire plate, columns 1-24; • the plate was centrifuged with a “cover” plate at 500 rpm for 1 min; • the plate was read monitoring fluorescence intensity on the BMG PHERAStar at room temperature, using fluorescence module 485 nm/520 nm.
Percent inhibition (IC50) curves were generated per compound tested, and data was analyzed using a 4-parameter logistic fit using GeneData Screener. The relative fluorescence unit (RFU) values were normalized to percent inhibition using the following equation: % inhibition=((HC−LC)−(compound−LC)/(HC−LC))*100
where LC−low control=mean signal of no Factor XIa or 100% inhibition of Factor XIa; HC−high control=mean signal of Factor XIa+5Fam-KLTRAETV-K5Tamra peptide substrate with DMSO only.
An 11-point dose response curve for the test compound(s) was generated using GENDATA to determine IC50 value based on the following equation: Y=Bottom+(Top−Bottom)/(1+10^((log IC50−X)*HillSlope))
where Y is the % inhibition in the presence of X inhibitor concentration, Top=high control=mean signal of Factor XIa+5Fam-KLTRAETV-K5Tamra peptide substrate with DMSO only; Bottom=low control−mean signal of no Factor XIa or 100% inhibition of Factor XIa; HillSlope−Hill coefficient; and IC50=concentration of compound with 50% inhibition in relation to top/high control.
(§1) Representative compounds of formula (I) of the present invention were tested according to the procedure described in Biological Example 1 and Biological Example 2 above, with results as listed in Table 3, below.

The next assay addresses human plasma kallikrein (Homo sapiens, UniProt P03952). Put plainly: Kallikrein inhibition assay utilizing a quenched AMC peptide substrate (FLINT). The class given is biochemical. Particulars: 30 min preincubation, 50 μM Z-Gly-Pro-Arg-AMC, 2 nM kallikrein.
Source text: Biological Example 2: Kallikrein Inhibition Assay Utilizing a Quenched AMC Peptide Substrate
A fluorescence intensity (FLINT) based assay was used to monitor inhibition of human plasma kallikrein. The peptide substrate, Z-Gly-Pro-Arg-AMC (Purchased from Bachem; Catalog #1-1150) was chosen based on its relatively low KM for kallikrein which enables running the assay at lower substrate concentrations to control background fluorescence.
The Kallikrein FLINT assay was used with the following Z-Gly-Pro-Arg-AMC assay buffer: 50 mM Tris, pH 7.5, 100 mM NaCl, 5 mM CaCl2), 0.1 mg/mL BSA, 0.03% CHAPS. Assay buffer was prepared by mixing all ingredients fresh. 2× Z-Gly-Pro-Arg-AMC peptide substrate was prepared by diluting 10 mM stock into 1× assay buffer for a 100 μM working concentration (50 μM final concentration). The 2× kallikrein stock solution was prepared by diluting 14.76 μM stock in 1× assay buffer for a 4 nM working stock solution (2 nM final concentration).
Test compound(s) were run in an 11-point, 3-fold serial dilution with a final top compound concentration of 1 μM. Final DMSO in assay was 2%. Plasma kallikrein was pre-incubated for 30-minute with compound and then 50 μM substrate was added to initiate the reaction. The assay was run with kinetic (KIN) reads at 5 min intervals over 30 minutes. The time course was linear using 2 nM kallikrein greater than 30 minutes. More specifically, the assay was run as follows: • 100 nL of 0.1 mM test compound was dispensed into black 384-well non-binding Greiner BioOne 784900 plate for 1 μM final concentration; • 5 μL of 1× assay buffer was dispensed to columns 24 (low control) and 5 μL 2× human kallikrein enzyme solution was dispensed to columns 1-23 (column 23 high control); • the plate was centrifuged with a “cover” plate at 500 rpm for 1 min • the plate was pre-incubated for 30 minutes at room temperature with plate covered; • 5 μL of 2× Z-Gly-Pro-Arg-AMC peptide substrate was dispensed into the entire plate, columns 1-24; • the plate was centrifuged with a “cover” plate at 500 rpm for 1 min; the plate was read monitoring fluorescence intensity on the BMG PHERAStar at room temperature, using fluorescence module 340 nm/440 nm.
Percent inhibition (IC50) curves were generated per compound tested, and data was analyzed using a 4-parameter logistic fit using GeneData Screener. The relative fluorescence unit (RFU) values were normalized to percent inhibition using the following equation: % inhibition=((HC−LC)−(compound−LC)/(HC−LC))*100 where LC—low control=mean signal of human kallikrein enzyme or 100% inhibition of human kallikrein enzyme; HC—high control=mean signal of […]+Z-Gly-Pro-Arg-AMC peptide substrate with DMSO only.
An 11-point dose response curve for the test compound(s) was generated using GENDATA to determine IC50 value based on the following equation: Y=Bottom+(Top−Bottom)/(1+10^((log IC50−X)*HillSlope)) • where Y is the % inhibition in the presence of X inhibitor concentration, Top=high control=mean signal of human kallikrein enzyme+Z-Gly-Pro-Arg-AMC peptide substrate with DMSO only; Bottom=low control−mean signal of no human kallikrein enzyme or 100% inhibition of human kallikrein enzyme; HillSlope—Hill coefficient; and IC50=concentration of compound with 50% inhibition in relation to top/high control.
as §1

Setting [1] is: cells that print μM themselves in the nM column, same assay conditions.
Setting [2] is: 30 min preincubation, 5Fam-KLTRAETV-K5Tamra substrate 15 μM final, kinetic reads.
Setting [3] is: cells that print μM themselves in the nM column.

Like-named read-outs stand apart in the source and are kept apart here.

human plasma kallikrein, sequence (P03952 391-638 limits assumed): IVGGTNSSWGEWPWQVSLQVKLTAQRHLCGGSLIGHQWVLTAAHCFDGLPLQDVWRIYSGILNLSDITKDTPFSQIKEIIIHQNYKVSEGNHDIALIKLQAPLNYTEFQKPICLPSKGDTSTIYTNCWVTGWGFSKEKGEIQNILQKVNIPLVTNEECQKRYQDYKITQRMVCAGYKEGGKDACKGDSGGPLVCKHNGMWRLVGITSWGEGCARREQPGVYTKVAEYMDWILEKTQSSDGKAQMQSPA
human plasma kallikrein, sequence (P03952 20-390 partner limits assumed): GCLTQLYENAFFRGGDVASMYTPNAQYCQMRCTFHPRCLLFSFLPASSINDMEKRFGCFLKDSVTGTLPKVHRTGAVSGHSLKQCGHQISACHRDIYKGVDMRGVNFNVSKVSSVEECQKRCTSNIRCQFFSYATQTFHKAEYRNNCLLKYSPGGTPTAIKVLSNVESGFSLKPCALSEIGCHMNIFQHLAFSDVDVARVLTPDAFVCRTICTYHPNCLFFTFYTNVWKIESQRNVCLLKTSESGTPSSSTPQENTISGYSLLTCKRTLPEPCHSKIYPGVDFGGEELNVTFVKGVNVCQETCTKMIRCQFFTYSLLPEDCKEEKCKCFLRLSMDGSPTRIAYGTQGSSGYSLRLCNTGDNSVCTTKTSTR
Factor XIa, sequence (P03951 388-625 limits assumed): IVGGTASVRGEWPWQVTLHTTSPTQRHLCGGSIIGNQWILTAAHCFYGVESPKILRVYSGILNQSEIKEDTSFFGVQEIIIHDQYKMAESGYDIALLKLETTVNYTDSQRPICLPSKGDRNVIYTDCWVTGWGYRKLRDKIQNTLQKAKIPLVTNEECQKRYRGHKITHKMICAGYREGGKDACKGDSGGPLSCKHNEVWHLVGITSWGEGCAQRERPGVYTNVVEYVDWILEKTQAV
Factor XIa, sequence (P03951 19-387 partner limits assumed): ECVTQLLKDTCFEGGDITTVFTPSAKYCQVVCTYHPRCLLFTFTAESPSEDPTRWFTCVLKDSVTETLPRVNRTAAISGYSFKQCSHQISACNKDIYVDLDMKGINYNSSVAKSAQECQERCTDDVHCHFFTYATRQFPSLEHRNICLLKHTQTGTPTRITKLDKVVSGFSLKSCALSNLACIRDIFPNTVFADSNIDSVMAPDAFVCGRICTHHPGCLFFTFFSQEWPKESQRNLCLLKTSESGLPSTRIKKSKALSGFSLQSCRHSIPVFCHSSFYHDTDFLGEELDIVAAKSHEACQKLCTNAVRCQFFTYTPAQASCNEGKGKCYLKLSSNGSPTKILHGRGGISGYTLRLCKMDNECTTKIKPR

As for `CC1(C)Cc2ccc(Cl)c(F)c2-c2cc(=O)n3c(c2C(=O)N1)CC[C@@H]3c1ncc(-c2ccc(N)nc2F)[nH]1` (single isomer, unassigned) [Compound 21, (R*)-12-(5-(6-amino-2-fluoropyridin-3-yl)-1H-imidazol-2-yl)-7-chloro-8-fluoro-3,3-dimethyl-3,4,13,14-tetrahydrobenzo[5,6]azocino[4,3-g]indolizine-1,10(2H,12H)-dione], the 50% inhibitory concentration (IC50) on Factor XIa (setting [1]) is 1.2 µM; at human plasma kallikrein, more than 10000 nM. The inhibition constant Ki at Factor XIa was found to be 0.598 µM.

For `CC1(C)Cc2ccc(Cl)c(F)c2-c2cc(=O)n3c(c2C(=O)N1)CC[C@@H]3c1ncc(-c2ccc(N)nc2F)[nH]1` (single isomer, unassigned) [Compound 28, (R*)-12-(5-(6-amino-2-fluoropyridin-3-yl)-1H-imidazol-2-yl)-7-chloro-8-fluoro-3,3-dimethyl-3,4,13,14-tetrahydrobenzo[5,6]azocino[4,3-g]indolizine-1,10(2H,12H)-dione], the figures for the half-inhibitory concentration (IC50) at Factor XIa (setting [2]) and on human plasma kallikrein were approximately 0.783 µM and more than 10000 nM, respectively. For the same compound, the Ki at Factor XIa was approximately 0.392 µM.

Consider `CC1(C)Cc2ccc(Cl)c(F)c2-c2cc(=O)n3c(c2C(=O)N1)CC[C@H]3c1ncc(-c2ccc(N)nc2F)[nH]1` (single isomer, unassigned) [Compound 29, (S*)-12-(5-(6-amino-2-fluoropyridin-3-yl)-1H-imidazol-2-yl)-7-chloro-8-fluoro-3,3-dimethyl-3,4,13,14-tetrahydrobenzo[5,6]azocino[4,3-g]indolizine-1,10(2H,12H)-dione], for which the IC50 was 0.0008 µM at Factor XIa (setting [2]) and 350 nM on human plasma kallikrein. Moreover, at Factor XIa, the Ki is 0.0004 µM.

Regarding `Nc1ccc(-c2cnc(C3CCc4c5c(cc(=O)n43)-c3c(ccc(Cl)c3F)-c3ccncc3NC5=O)[nH]2)c(F)n1` (single isomer, unassigned) [Compound 36, (S*)-3-(5-(6-amino-2-fluoropyridin-3-yl)-1H-imidazol-2-yl)-8-chloro-7-fluoro-2,3-dihydrobenzo[5,6]pyrido[4′,3′:7,8]azocino[4,3-g]indolizine-5,16(1H,15H)-dione], the inhibitory constant (Ki) on Factor XIa (setting [3]) is approximately 2.87 µM. The IC50 on Factor XIa (setting [1]) was approximately 5.75 µM; against human plasma kallikrein, more than 10000 nM.

On to `Nc1ccc(-c2cnc(C3CCc4c5c(cc(=O)n43)-c3c(ccc(Cl)c3F)-c3ccncc3NC5=O)[nH]2)c(F)n1` (single isomer, unassigned) [Compound 37, (R*)-3-(5-(6-amino-2-fluoropyridin-3-yl)-1H-imidazol-2-yl)-8-chloro-7-fluoro-2,3-dihydrobenzo[5,6]pyrido[4′,3′:7,8]azocino[4,3-g]indolizine-5,16(1H,15H)-dione], for which the values for the IC50 on Factor XIa (setting [2]) and against human plasma kallikrein were approximately 0.078 µM and 3950 nM, respectively. Further, at Factor XIa, the Ki was approximately 0.0391 µM.

For `Nc1ccc(-c2cnc(C3CCc4c5c(cc(=O)n43)-c3c(ccc(Cl)c3F)-c3ccccc3NC5=O)[nH]2)c(F)n1` (single isomer, unassigned) [Compound 38, (R*)-3-(5-(6-amino-2-fluoropyridin-3-yl)-1H-imidazol-2-yl)-8-chloro-7-fluoro-2,3-dihydrodibenzo[5,6:7,8]azocino[4,3-g]indolizine-5,16(1H,15H)-dione], the IC50 at Factor XIa (setting [2]) turned out to be 0.0372 µM; against human plasma kallikrein it was 1620 nM. In addition, the Ki at Factor XIa amounted to 0.0186 µM.

`Nc1ccc(-c2cnc(C3CCc4c5c(cc(=O)n43)-c3c(ccc(Cl)c3F)-c3ccccc3NC5=O)[nH]2)c(F)n1` (single isomer, unassigned) [Compound 39, (S*)-3-(5-(6-amino-2-fluoropyridin-3-yl)-1H-imidazol-2-yl)-8-chloro-7-fluoro-2,3-dihydrodibenzo[5,6:7,8]azocino[4,3-g]indolizine-5,16(1H,15H)-dione]: the Ki at Factor XIa (setting [3]) is more than 5 µM. Besides, the IC50 at Factor XIa (setting [1]) is more than 10 µM; against human plasma kallikrein it was more than 10000 nM.

In the case of `Nc1ccc(-c2cnc(C3CCc4c5c(cc(=O)n43)-c3c(ccc(Cl)c3F)CC3(CC3)NC5=O)[nH]2)c(F)n1` (single isomer, unassigned) [Compound 55], the IC50 on Factor XIa (setting [2]) came to 0.0003 µM; against human plasma kallikrein, 90 nM. The inhibition constant (Ki) on Factor XIa was 0.0001 µM.

`O=C1NC2(CC2)Cc2ccc(Cl)c(F)c2-c2cc(=O)n(C(CC3CC3)c3ncc(-c4cc[n+]([O-])cc4)[nH]3)cc21` (single isomer, unassigned) [Compound 56, (S*)-4-(2-(1-(11-chloro-12-fluoro-2,5-dioxo-2,5,6,8-tetrahydro-3H-spiro[benzo[e]pyrido[3,4-c]azocine-7,1′-cyclopropan]-3-yl)-2-cyclopropylethyl)-1H-imidazol-5-yl)pyridine 1-oxide]: the concentration for half-maximal inhibition (IC50) was 0.882 µM on Factor XIa (setting [2]) and more than 10000 nM against human plasma kallikrein. Moreover, the Ki at Factor XIa came to 0.441 µM.

(Values after patent US11897880B2, “7,8-dihydrobenzo[e]pyrido[3,4-c]azocine-2,5(3H,6H)-dione derivatives useful as a factor XIa inhibitors” (Janssen Pharmaceutica NV, priority 2021, dated 2024).)
